Laboratory results reported in patent publication US11917959B2, “Multi-ear system to enhance monocot plant yield” (Monsanto Technology LLC, priority 2015, dated 2024).

What was measured:
[1] = system: DH0 maize plants, Germplasm A; assay: Doubling efficiency after co-dominant ear induction (Example 2); assay type: in vivo; conditions: for DE04 doubling efficiency / DE20 doubling efficiency / DE30 doubling efficiency / DE50 doubling efficiency: Germplasm A DH0, 60 mL 2.5% PBZ
Source text: An F1 hybrid-derived haploid induction population derived from female inbred maize plant Germplasm A was germinated in soil and tended in standard greenhouse maize growing conditions for approximately seven days. Seedlings were then subjected to a bulk colchicine-based chromosome doubling treatment as described above. Following treatment, seedlings were transplanted into pots and tended in a greenhouse at standard greenhouse maize growing conditions to recover.
Twenty-nine days after the colchicine doubling treatment, 77 of the DH0 seedlings were subjected to a co-dominant ear induction treatment comprising the addition of 60 mL of 2.5% PBZ (v/v) in water, which was poured into the soil surrounding the roots of each plant. The seedlings were then tended in standard greenhouse maize growing conditions until they flowered, at which time each plant that produced pollen was self-pollinated. After approximately 3-4 weeks, ears were harvested and the kernels (DH1 seeds) that formed on the treated DH0 plants were counted to determine doubling efficiencies.
Doubling efficiencies (DE) were calculated under four different constraints, depending on the minimum number of kernels an ear had to produce in order to even be included in the calculation. DE04 represents the portion of all the doubled DH0 plants that produced a total of at least four seeds when all ears were considered. DE20 represents the portion of all the doubled DH0 plants that produced a total of at least 20 kernels when all ears were considered. Similarly, DE30 represents the portion of doubled DH0 plants that produced a total of at least 30 kernels when all ears were considered, and DE50 represents the portion of doubled DH0 plants that produced a total of at least 50 kernels when all ears were considered.
Furthermore, the above doubling efficiencies were calculated once by considering only the kernels that formed on the primary ear of each plant (Ear1), once by considering only the kernels that formed on the primary and secondary ear of each plant (Ear2), once by considering only the kernels that formed on the primary, secondary, and tertiary ear of each plant (Ear3), and finally by considering all the kernels that formed on all the ears of each plant (Earall).

[2] = system: eleven corn inbred germplasm; assay: Chemistry treatment of eleven corn inbred germplasm at V3 or V8 (Example 12); assay type: in vivo; conditions: for Avg Kernels from Main Stem / Avg Total Kernels Per Plant: auto-self
Source text: Seeds for eleven corn inbred germplasm was planted in six-packs and grown in greenhouses under standard conditions as outlined in Example 1. At thirteen days after germination the seedlings for the eleven different germplasm (20 plants per germplasm) were transplanted into standard pots. […]

[3] = Ear 2 (primary and secondary ear)
[4] = Ear 3 (primary, secondary, tertiary ear)
[5] = pedigree A, 3HV: 14DAP, 4 mg/plant, 2% 50 mL
[6] = pedigree A, 3LV: 14DAP, 4 mg/plant, 6.25% 16 mL
[7] = pedigree A, 8HV: 28DAP, 8 mg/plant, 2% 100 mL
[8] = pedigree A, 8LV: 28DAP, 8 mg/plant, 13% 16 mL
[9] = pedigree B, 3HV: 14DAP, 6 mg/plant, 3% 50 mL
[10] = pedigree B, 3LV: 14DAP, 6 mg/plant, 9.38% 16 mL
[11] = pedigree B, 8HV: 28DAP, 16 mg/plant, 4% 100 mL
[12] = pedigree B, 8LV: 28DAP, 16 mg/plant, 25% 16 mL
[13] = pedigree C, 3LV: 14DAP, 6 mg/plant, 9.38% 16 mL
[14] = pedigree C, 8HV: 28DAP, 16 mg/plant, 4% 100 mL
[15] = pedigree C, 8LV: 28DAP, 16 mg/plant, 25% 16 mL
[16] = pedigree D, 3HV: 14DAP, 6 mg/plant, 3% 50 mL
[17] = pedigree D, 3LV: 14DAP, 6 mg/plant, 9.38% 16 mL
[18] = pedigree D, 8HV: 28DAP, 16 mg/plant, 4% 100 mL
[19] = pedigree D, 8LV: 28DAP, 16 mg/plant, 25% 16 mL
[20] = pedigree E, 3HV: 14DAP, 6 mg/plant, 3% 50 mL
[21] = pedigree E, 3LV: 14DAP, 6 mg/plant, 9.38% 16 mL
[22] = pedigree E, 8HV: 28DAP, 16 mg/plant, 4% 100 mL
[23] = pedigree E, 8LV: 28DAP, 16 mg/plant, 25% 16 mL
[24] = pedigree F, 3HV: 14DAP, 6 mg/plant, 3% 50 mL
[25] = pedigree F, 3LV: 14DAP, 6 mg/plant, 9.38% 16 mL
[26] = pedigree F, 8HV: 28DAP, 16 mg/plant, 4% 100 mL
[27] = pedigree F, 8LV: 28DAP, 16 mg/plant, 25% 16 mL
[28] = pedigree G, 3HV: 14DAP, 6 mg/plant, 3% 50 mL
[29] = pedigree G, 3LV: 14DAP, 6 mg/plant, 9.38% 16 mL
[30] = pedigree G, 8HV: 28DAP, 16 mg/plant, 4% 100 mL
[31] = pedigree G, 8LV: 28DAP, 16 mg/plant, 25% 16 mL
[32] = pedigree H, 3HV: 14DAP, 6 mg/plant, 3% 50 mL
[33] = pedigree H, 3LV: 14DAP, 6 mg/plant, 9.38% 16 mL
[34] = pedigree H, 8HV: 28DAP, 16 mg/plant, 4% 100 mL
[35] = pedigree H, 8LV: 28DAP, 16 mg/plant, 25% 16 mL
[36] = pedigree I, 3HV: 14DAP, 10 mg/plant, 5% 50 mL
[37] = pedigree I, 3LV: 14DAP, 10 mg/plant, 15.63% 16 mL
[38] = pedigree I, 8HV: 28DAP, 32 mg/plant, 8% 100 mL
[39] = pedigree I, 8LV: 28DAP, 32 mg/plant, 50% 16 mL
[40] = pedigree J, 3HV: 14DAP, 10 mg/plant, 5% 50 mL
[41] = pedigree J, 3LV: 14DAP, 10 mg/plant, 15.63% 16 mL
[42] = pedigree J, 8HV: 28DAP, 32 mg/plant, 8% 100 mL
[43] = pedigree J, 8LV: 28DAP, 32 mg/plant, 50% 16 mL
[44] = pedigree K, 3HV: 14DAP, 6 mg/plant, 3% 50 mL
[45] = pedigree K, 8HV: 28DAP, 16 mg/plant, 4% 100 mL
[46] = pedigree K, 8LV: 28DAP, 16 mg/plant, 25% 16 mL
[47] = pedigree K, K3LV: 14DAP, 6 mg/plant, 9.38% 16 mL

CC(C)(C)[C@@H](O)[C@@H](Cc1ccc(Cl)cc1)n1cncn1 (relative stereo) [PBZ, (±)-(R*, R*)-beta-((4-chlorophenyl)methyl)-alpha-(1,1,-dimethylethyl)-1H-1,2,4,-triazole-1-ethanol]
DE04 doubling efficiency ([1]; Ear 1 only): 71% | DE20 doubling efficiency ([1]; Ear 1 only): 37% | DE30 doubling efficiency ([1]; Ear 1 only): 26% | DE50 doubling efficiency ([1]; Ear 1 only): 23% | reduction in DE between DE04 and DE20 ([1]; Ear2): 22% | DE04 doubling efficiency [1, 3]: 76% | DE20 doubling efficiency [1, 3]: 59% | DE30 doubling efficiency [1, 3]: 47% | DE50 doubling efficiency [1, 3]: 36% | DE04 doubling efficiency [1, 4]: 76% | DE20 doubling efficiency [1, 4]: 65% | DE30 doubling efficiency [1, 4]: 58% | DE50 doubling efficiency [1, 4]: 50% | DE04 doubling efficiency ([1]; Ear All): 76% | DE20 doubling efficiency ([1]; Ear All): 68% | DE30 doubling efficiency ([1]; Ear All): 58% | DE50 doubling efficiency ([1]; Ear All): 52% | kernel number per plant ([2]; diverse germplasm treated at V3 (14DAP) or V8 (28DAP), FIG. 11): average increase in kernel number per plant | decrease in height, on average ([2]; every germplasm tested, FIG. 10): 30-50% | Avg Kernels from Main Stem [2, 5]: 330.50 | Avg Total Kernels Per Plant [2, 5]: 351.00 | Avg Kernels from Main Stem [2, 6]: 352.25 | Avg Total Kernels Per Plant [2, 6]: 515.75 | Avg Kernels from Main Stem [2, 7]: 337.00 | Avg Total Kernels Per Plant [2, 7]: 345.75 | Avg Kernels from Main Stem [2, 8]: 366.50 | Avg Total Kernels Per Plant [2, 8]: 413.00 | Avg Kernels from Main Stem [2, 9]: 204.00 | Avg Total Kernels Per Plant [2, 9]: 215.50 | Avg Kernels from Main Stem [2, 10]: 260.25 | Avg Total Kernels Per Plant [2, 10]: 291.25 | Avg Kernels from Main Stem [2, 11]: 567.00 | Avg Total Kernels Per Plant [2, 11]: 567.25 | Avg Kernels from Main Stem [2, 12]: 427.00 | Avg Total Kernels Per Plant [2, 12]: 432.75 | Avg Kernels from Main Stem [2, 13]: 291.50 | Avg Total Kernels Per Plant [2, 13]: 611.25 | Avg Kernels from Main Stem [2, 14]: 148.00 | Avg Total Kernels Per Plant [2, 14]: 255.25 | Avg Kernels from Main Stem [2, 15]: 325.75 | Avg Total Kernels Per Plant [2, 15]: 513.25 | Avg Kernels from Main Stem [2, 16]: 616.75 | Avg Total Kernels Per Plant [2, 16]: 766.25 | Avg Kernels from Main Stem [2, 17]: 631.25 | Avg Total Kernels Per Plant [2, 17]: 839.25 | Avg Kernels from Main Stem [2, 18]: 581.75 | Avg Total Kernels Per Plant [2, 18]: 646.75 | Avg Kernels from Main Stem [2, 19]: 727.75 | Avg Total Kernels Per Plant [2, 19]: 745.50 | Avg Kernels from Main Stem [2, 20]: 334.50 | Avg Total Kernels Per Plant [2, 20]: 405.25 | Avg Kernels from Main Stem [2, 21]: 291.25 | Avg Total Kernels Per Plant [2, 21]: 422.50 | Avg Kernels from Main Stem [2, 22]: 532.50 | Avg Total Kernels Per Plant [2, 22]: 678.25 | Avg Kernels from Main Stem [2, 23]: 583.25 | Avg Total Kernels Per Plant [2, 23]: 772.75 | Avg Kernels from Main Stem [2, 24]: 414.75 | Avg Total Kernels Per Plant [2, 24]: 1078.75 | Avg Kernels from Main Stem [2, 25]: 392.00 | Avg Total Kernels Per Plant [2, 25]: 777.75 | Avg Kernels from Main Stem [2, 26]: 301.00 | Avg Total Kernels Per Plant [2, 26]: 442.25 | Avg Kernels from Main Stem [2, 27]: 461.00 | Avg Total Kernels Per Plant [2, 27]: 661.00 | Avg Kernels from Main Stem [2, 28]: 381.50 | Avg Total Kernels Per Plant [2, 28]: 905.50 | Avg Kernels from Main Stem [2, 29]: 485.50 | Avg Total Kernels Per Plant [2, 29]: 1033.50 | Avg Kernels from Main Stem [2, 30]: 284.50 | Avg Total Kernels Per Plant [2, 30]: 567.00 | Avg Kernels from Main Stem [2, 31]: 542.75 | Avg Total Kernels Per Plant [2, 31]: 728.25 | Avg Kernels from Main Stem [2, 32]: 77.50 | Avg Total Kernels Per Plant [2, 32]: 80.00 | Avg Kernels from Main Stem [2, 33]: 73.25 | Avg Total Kernels Per Plant [2, 33]: 83.00 | Avg Kernels from Main Stem [2, 34]: 388.50 | Avg Total Kernels Per Plant [2, 34]: 520.00 | Avg Kernels from Main Stem [2, 35]: 439.75 | Avg Total Kernels Per Plant [2, 35]: 564.75 | Avg Kernels from Main Stem [2, 36]: 172.00 | Avg Total Kernels Per Plant [2, 36]: 218.75 | Avg Kernels from Main Stem [2, 37]: 175.00 | Avg Total Kernels Per Plant [2, 37]: 191.25 | Avg Kernels from Main Stem [2, 38]: 508.75 | Avg Total Kernels Per Plant [2, 38]: 550.50 | Avg Kernels from Main Stem [2, 39]: 448.25 | Avg Total Kernels Per Plant [2, 39]: 448.25 | Avg Kernels from Main Stem [2, 40]: 587.00 | Avg Total Kernels Per Plant [2, 40]: 1005.75 | Avg Kernels from Main Stem [2, 41]: 602.75 | Avg Total Kernels Per Plant [2, 41]: 953.25 | Avg Kernels from Main Stem [2, 42]: 361.50 | Avg Total Kernels Per Plant [2, 42]: 398.75 | Avg Kernels from Main Stem [2, 43]: 280.50 | Avg Total Kernels Per Plant [2, 43]: 298.75 | Avg Kernels from Main Stem [2, 44]: 317.75 | Avg Total Kernels Per Plant [2, 44]: 365.00 | Avg Kernels from Main Stem [2, 45]: 446.75 | Avg Total Kernels Per Plant [2, 45]: 487.00 | Avg Kernels from Main Stem [2, 46]: 495.00 | Avg Total Kernels Per Plant [2, 46]: 539.75 | Avg Kernels from Main Stem [2, 47]: 418.75 | Avg Total Kernels Per Plant [2, 47]: 437.75
